Results reported in ChEMBL document CHEMBL4507282, “Data for DCP probe BI-1950” (2021).

Legend:
[1] = biological target: Histamine H4 receptor (Homo sapiens) (UniProt Q9H3N8); conditions: Compound concentration 10.0 uM
[2] = biological target: Mitogen-activated protein kinase kinase kinase 4 (Homo sapiens) (UniProt Q9Y6R4); conditions: Compound concentration 1000.0 nM
[3] = biological target: Homeodomain-interacting protein kinase 4 (Homo sapiens) (UniProt Q8NE63); conditions: Compound concentration 1000.0 nM
[4] = biological target: 5'-AMP-activated protein kinase catalytic subunit alpha-1 (Homo sapiens) (UniProt Q13131); conditions: Compound concentration 1000.0 nM
[5] = biological target: Serine/threonine-protein kinase OSR1 (Homo sapiens) (UniProt O95747); conditions: Compound concentration 1000.0 nM
[6] = biological target: Mitogen-activated protein kinase 1 (Homo sapiens) (UniProt P28482); conditions: Compound concentration 1000.0 nM
[7] = biological target: Serine/threonine-protein kinase RIO2 (Homo sapiens) (UniProt Q9BVS4); conditions: Compound concentration 1000.0 nM
[8] = biological target: Histamine H2 receptor (Homo sapiens) (UniProt P25021); test: H2/H Eurofins-Panlabs selectivity data (BI); conditions: Compound concentration 10.0 uM
[9] = biological target: Calcitonin-gene-related peptide receptor, CALCRL/RAMP1 (Homo sapiens) (UniProt O60894+Q16602); test: CGRP/HU Eurofins-Panlabs selectivity data (BI); assay type: protein-complex assay; conditions: Compound concentration 10.0 uM
[10] = biological target: Platelet-derived growth factor receptor beta (Homo sapiens) (UniProt P09619); conditions: Compound concentration 1000.0 nM
[11] = biological target: T1, D(4) dopamine receptor (Homo sapiens) (UniProt P21917); test: D4.2/H Eurofins-Panlabs selectivity data (BI); conditions: Compound concentration 10.0 uM
T1 sequence (whole entry): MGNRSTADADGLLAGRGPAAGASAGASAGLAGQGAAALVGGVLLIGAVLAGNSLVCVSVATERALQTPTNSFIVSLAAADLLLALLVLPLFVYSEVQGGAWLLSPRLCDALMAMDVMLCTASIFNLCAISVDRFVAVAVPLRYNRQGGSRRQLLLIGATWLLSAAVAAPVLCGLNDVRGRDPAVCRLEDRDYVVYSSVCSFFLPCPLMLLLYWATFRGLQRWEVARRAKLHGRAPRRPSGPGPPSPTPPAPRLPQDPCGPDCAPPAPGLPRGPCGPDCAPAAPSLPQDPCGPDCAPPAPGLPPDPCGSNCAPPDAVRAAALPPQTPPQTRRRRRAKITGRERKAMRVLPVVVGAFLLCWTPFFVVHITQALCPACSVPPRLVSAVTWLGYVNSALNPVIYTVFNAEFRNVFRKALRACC

[12] = biological target: Uncharacterized serine/threonine-protein kinase SBK3 (Homo sapiens) (UniProt P0C264); conditions: Compound concentration 1000.0 nM
[13] = biological target: Gamma-aminobutyric acid receptor subunit alpha-1 (Rattus norvegicus) (UniProt P62813); test: GABAACL+ Eurofins-Panlabs selectivity data (BI); conditions: Compound concentration 10.0 uM
[14] = biological target: Adrenergic receptor alpha-1 (Rattus norvegicus) (UniProt P15823+P23944+P43140); test: ALPHA1/R Eurofins-Panlabs selectivity data (BI); assay type: protein assay; conditions: Compound concentration 10.0 uM
[15] = biological target: 5-hydroxytryptamine receptor 5A (Homo sapiens) (UniProt P47898); test: 5HT5A/HU Eurofins-Panlabs selectivity data (BI); conditions: Compound concentration 10.0 uM
[16] = biological target: Sodium-dependent dopamine transporter (Homo sapiens) (UniProt Q01959); test: DATRANS/H Eurofins-Panlabs selectivity data (BI); conditions: Compound concentration 10.0 uM
[17] = biological target: D(3) dopamine receptor (Homo sapiens) (UniProt P35462); test: D3/HU Eurofins-Panlabs selectivity data (BI); conditions: Compound concentration 10.0 uM
[18] = biological target: Voltage-dependent L-type calcium channel subunit alpha-1C (diltiazem site) (Rattus norvegicus, UniProt P22002); test: CA+/DILSI/RA Eurofins-Panlabs selectivity data (BI); conditions: compound concentration 10 uM, read-out: % Ctrl
[19] = tested on: Phosphatidylinositol 4,5-bisphosphate 3-kinase catalytic subunit alpha isoform (Homo sapiens), P42336 [Q546K]; conditions: Compound concentration 1000.0 nM
[20] = biological target: Ephrin type-B receptor 6 (Homo sapiens) (UniProt O15197); conditions: Compound concentration 1000.0 nM
[21] = biological target: Cyclin-dependent kinase-like 3 (Homo sapiens) (UniProt Q8IVW4); conditions: Compound concentration 1000.0 nM
[22] = biological target: Carbonic anhydrase 6 (Homo sapiens) (UniProt P23280); test: CANHYDRASE Eurofins-Panlabs selectivity data (BI); conditions: Compound concentration 10.0 uM
[23] = biological target: Protein-tyrosine kinase 2-beta (Homo sapiens) (UniProt Q14289); conditions: Compound concentration 1000.0 nM
[24] = biological target: Voltage-dependent N-type calcium channel subunit alpha-1B (Rattus norvegicus) (UniProt Q02294); test: CA+/N/RA Eurofins-Panlabs selectivity data (BI); conditions: Compound concentration 10.0 uM
[25] = biological target: NUAK family SNF1-like kinase 1 (Homo sapiens) (UniProt O60285); conditions: Compound concentration 1000.0 nM
[26] = biological target: Dual specificity mitogen-activated protein kinase kinase 1 (Homo sapiens) (UniProt Q02750); conditions: Compound concentration 1000.0 nM
[27] = biological target: Vasopressin V2 receptor (Homo sapiens) (UniProt P30518); test: VASOPRE_V2 Eurofins-Panlabs selectivity data (BI); conditions: Compound concentration 10.0 uM
[28] = biological target: Beta-2 adrenergic receptor (Rattus norvegicus) (UniProt P10608); test: BETA/R Eurofins-Panlabs selectivity data (BI); conditions: Compound concentration 10.0 uM
[29] = biological target: Cyclin-dependent kinase 7 (Homo sapiens) (UniProt P50613); conditions: Compound concentration 1000.0 nM
[30] = biological target: Serine/threonine-protein kinase D1 (Homo sapiens) (UniProt Q15139); conditions: Compound concentration 1000.0 nM
[31] = biological target: Histamine H2 receptor (Homo sapiens) (UniProt P25021); conditions: Compound concentration 10.0 uM
[32] = tested on: Mast/stem cell growth factor receptor Kit (Homo sapiens), P10721 [D816H]; conditions: Compound concentration 1000.0 nM
[33] = biological target: Serine/threonine-protein kinase Nek9 (Homo sapiens) (UniProt Q8TD19); conditions: Compound concentration 1000.0 nM
[34] = biological target: Serine/threonine-protein kinase 38 (Homo sapiens) (UniProt Q15208); conditions: Compound concentration 1000.0 nM
[35] = tested on: Tyrosine-protein kinase ABL1 (Homo sapiens), P00519 [T315I]; conditions: Compound concentration 1000.0 nM
[36] = biological target: Cyclin-dependent kinase 9 (Homo sapiens) (UniProt P50750); conditions: Compound concentration 1000.0 nM
[37] = biological target: Ankyrin repeat and protein kinase domain-containing protein 1 (Homo sapiens) (UniProt Q8NFD2); conditions: Compound concentration 1000.0 nM
[38] = biological target: Sodium-dependent noradrenaline transporter (Homo sapiens) (UniProt P23975); test: NETRANS/H Eurofins-Panlabs selectivity data (BI); conditions: Compound concentration 10.0 uM
[39] = biological target: Muscarinic acetylcholine receptor M5 (Homo sapiens) (UniProt P08912); conditions: Compound concentration 10.0 uM

Sequence of Histamine H2 receptor (Homo sapiens) (P25021 whole entry): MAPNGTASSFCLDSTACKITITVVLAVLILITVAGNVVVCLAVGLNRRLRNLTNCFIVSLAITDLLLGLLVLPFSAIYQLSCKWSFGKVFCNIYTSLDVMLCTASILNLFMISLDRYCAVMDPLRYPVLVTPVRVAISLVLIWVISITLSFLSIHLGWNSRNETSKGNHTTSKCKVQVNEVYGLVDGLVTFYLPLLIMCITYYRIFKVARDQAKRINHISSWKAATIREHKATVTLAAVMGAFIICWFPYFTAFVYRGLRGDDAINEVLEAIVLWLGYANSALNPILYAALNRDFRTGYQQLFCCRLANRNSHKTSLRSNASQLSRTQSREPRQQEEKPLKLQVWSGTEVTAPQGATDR
Sequence of Serine/threonine-protein kinase Nek9 (Homo sapiens) (Q8TD19 whole entry): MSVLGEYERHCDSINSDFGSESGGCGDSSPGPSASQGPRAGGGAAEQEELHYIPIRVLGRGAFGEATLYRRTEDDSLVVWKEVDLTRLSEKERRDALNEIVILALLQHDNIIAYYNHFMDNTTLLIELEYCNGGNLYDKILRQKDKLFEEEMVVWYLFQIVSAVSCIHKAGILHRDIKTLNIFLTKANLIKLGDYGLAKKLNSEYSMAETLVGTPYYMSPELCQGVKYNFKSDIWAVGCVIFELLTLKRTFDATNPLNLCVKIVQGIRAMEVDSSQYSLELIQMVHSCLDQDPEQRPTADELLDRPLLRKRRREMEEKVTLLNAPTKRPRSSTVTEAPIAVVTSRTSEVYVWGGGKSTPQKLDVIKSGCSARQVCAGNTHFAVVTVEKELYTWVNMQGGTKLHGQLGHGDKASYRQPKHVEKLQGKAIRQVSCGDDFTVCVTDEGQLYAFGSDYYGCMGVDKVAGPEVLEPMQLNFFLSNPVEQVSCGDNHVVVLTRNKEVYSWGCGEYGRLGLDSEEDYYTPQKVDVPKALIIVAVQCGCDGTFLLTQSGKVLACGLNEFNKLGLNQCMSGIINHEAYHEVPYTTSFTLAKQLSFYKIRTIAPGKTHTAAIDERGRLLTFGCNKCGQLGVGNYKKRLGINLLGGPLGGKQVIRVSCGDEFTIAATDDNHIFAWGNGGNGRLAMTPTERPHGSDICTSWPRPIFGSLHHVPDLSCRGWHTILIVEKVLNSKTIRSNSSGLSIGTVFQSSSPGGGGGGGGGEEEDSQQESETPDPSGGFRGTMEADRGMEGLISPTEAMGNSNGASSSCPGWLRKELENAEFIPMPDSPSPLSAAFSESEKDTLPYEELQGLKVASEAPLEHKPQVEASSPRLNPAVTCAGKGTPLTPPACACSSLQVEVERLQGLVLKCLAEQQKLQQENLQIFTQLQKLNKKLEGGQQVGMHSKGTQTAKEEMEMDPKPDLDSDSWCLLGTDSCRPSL
Sequence of Platelet-derived growth factor receptor beta (Homo sapiens) (P09619 whole entry): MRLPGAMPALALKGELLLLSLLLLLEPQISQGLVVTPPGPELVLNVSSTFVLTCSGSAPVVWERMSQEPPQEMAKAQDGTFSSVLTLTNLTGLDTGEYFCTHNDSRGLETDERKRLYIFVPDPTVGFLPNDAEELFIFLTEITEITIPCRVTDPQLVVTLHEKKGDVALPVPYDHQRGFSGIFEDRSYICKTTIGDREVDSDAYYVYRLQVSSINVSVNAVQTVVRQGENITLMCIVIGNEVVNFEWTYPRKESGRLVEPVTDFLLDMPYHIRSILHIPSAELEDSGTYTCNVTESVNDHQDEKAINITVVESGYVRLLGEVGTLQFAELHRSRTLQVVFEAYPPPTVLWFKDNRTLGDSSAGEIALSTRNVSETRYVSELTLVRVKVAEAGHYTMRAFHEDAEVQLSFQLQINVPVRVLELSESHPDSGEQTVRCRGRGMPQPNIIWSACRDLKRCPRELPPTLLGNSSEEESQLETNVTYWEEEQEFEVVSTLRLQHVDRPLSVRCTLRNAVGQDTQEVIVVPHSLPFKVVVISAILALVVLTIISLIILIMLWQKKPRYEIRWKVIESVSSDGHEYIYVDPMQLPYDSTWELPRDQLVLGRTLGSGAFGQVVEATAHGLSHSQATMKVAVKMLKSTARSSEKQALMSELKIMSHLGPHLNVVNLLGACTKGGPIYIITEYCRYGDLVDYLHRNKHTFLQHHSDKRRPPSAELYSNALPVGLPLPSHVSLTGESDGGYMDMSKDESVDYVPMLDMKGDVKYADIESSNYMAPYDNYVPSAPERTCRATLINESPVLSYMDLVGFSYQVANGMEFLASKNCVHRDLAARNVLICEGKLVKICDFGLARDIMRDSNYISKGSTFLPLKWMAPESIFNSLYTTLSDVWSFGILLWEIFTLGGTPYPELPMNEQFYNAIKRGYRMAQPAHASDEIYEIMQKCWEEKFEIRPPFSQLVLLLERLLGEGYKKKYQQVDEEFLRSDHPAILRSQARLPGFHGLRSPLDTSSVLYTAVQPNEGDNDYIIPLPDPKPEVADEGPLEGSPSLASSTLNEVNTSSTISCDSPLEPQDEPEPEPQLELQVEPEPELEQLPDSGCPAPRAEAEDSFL
Sequence of Cyclin-dependent kinase 7 (Homo sapiens) (P50613 whole entry): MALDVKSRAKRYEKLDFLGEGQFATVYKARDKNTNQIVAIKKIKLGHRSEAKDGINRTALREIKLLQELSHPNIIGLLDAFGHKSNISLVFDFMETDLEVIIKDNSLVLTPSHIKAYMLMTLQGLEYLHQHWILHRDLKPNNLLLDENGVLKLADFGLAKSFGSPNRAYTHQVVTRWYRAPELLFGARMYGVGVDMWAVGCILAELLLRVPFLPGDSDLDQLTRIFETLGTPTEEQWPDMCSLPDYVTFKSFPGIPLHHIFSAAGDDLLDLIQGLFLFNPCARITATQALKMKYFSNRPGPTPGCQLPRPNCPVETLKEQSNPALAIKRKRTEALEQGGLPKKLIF
Sequence of Cyclin-dependent kinase-like 3 (Homo sapiens) (Q8IVW4 whole entry, looked up): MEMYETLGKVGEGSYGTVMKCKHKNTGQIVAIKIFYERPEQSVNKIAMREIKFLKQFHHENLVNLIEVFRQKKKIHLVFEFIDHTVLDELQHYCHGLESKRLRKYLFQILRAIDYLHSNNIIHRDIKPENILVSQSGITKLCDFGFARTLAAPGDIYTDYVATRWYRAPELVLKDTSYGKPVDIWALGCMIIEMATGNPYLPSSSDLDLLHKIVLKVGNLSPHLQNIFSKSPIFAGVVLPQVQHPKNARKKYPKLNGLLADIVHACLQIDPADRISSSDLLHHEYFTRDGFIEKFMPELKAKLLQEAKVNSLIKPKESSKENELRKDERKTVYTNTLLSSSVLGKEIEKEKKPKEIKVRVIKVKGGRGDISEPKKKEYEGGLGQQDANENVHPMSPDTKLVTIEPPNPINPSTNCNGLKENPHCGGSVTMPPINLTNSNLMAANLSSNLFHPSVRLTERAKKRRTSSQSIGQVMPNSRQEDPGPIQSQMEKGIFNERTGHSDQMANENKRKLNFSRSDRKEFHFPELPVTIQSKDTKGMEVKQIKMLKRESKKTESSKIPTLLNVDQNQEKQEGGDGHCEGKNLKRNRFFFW
Sequence of NUAK family SNF1-like kinase 1 (Homo sapiens) (O60285 whole entry): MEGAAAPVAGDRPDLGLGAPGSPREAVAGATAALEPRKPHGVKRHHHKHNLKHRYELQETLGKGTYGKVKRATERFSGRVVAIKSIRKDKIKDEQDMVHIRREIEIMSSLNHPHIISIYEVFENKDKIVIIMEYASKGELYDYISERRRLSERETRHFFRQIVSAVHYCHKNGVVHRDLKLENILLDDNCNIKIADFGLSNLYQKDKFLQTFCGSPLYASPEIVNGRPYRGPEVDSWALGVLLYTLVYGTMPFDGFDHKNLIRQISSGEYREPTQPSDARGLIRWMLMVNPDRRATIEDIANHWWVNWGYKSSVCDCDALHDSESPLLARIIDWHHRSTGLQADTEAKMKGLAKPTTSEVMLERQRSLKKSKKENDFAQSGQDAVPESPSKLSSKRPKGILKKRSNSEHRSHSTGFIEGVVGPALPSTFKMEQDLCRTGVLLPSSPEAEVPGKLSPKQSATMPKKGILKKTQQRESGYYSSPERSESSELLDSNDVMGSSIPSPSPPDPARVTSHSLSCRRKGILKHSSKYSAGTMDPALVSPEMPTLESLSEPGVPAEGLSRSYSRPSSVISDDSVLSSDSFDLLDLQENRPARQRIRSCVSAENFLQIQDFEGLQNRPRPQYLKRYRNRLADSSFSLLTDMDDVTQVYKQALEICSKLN
Sequence of Serine/threonine-protein kinase RIO2 (Homo sapiens) (Q9BVS4 whole entry, looked up): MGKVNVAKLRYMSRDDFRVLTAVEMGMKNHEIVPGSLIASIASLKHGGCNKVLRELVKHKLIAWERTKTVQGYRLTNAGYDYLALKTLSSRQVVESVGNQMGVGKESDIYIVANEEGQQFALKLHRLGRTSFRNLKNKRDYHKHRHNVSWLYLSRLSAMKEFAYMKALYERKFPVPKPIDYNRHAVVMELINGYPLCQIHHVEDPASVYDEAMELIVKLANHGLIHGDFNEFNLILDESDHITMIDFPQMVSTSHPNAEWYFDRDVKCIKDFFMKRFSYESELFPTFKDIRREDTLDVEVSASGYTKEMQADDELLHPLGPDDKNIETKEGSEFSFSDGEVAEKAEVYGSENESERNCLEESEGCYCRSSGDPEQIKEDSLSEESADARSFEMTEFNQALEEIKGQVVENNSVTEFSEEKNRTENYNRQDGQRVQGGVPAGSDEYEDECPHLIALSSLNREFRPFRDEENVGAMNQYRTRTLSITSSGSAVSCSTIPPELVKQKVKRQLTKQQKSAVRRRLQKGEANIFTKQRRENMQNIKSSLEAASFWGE
Sequence of Uncharacterized serine/threonine-protein kinase SBK3 (Homo sapiens) (P0C264 whole entry): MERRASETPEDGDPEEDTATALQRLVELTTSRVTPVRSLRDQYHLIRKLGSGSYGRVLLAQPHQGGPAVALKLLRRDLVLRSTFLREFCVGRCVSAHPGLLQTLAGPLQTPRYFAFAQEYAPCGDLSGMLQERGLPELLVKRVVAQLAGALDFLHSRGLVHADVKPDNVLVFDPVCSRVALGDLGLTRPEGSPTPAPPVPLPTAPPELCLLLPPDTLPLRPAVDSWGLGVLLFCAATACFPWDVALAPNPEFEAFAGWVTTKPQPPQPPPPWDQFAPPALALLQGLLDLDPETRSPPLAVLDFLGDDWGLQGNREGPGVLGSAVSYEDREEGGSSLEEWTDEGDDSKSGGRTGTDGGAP

Row | SMILES | inhibition [1] [%] | residual activity [2] [%] | residual activity [3] [%] | residual activity [4] [%] | residual activity [5] [%] | residual activity [6] [%] | residual activity [7] [%] | residual activity [10] [%] | residual activity [12] [%] | residual activity [19] [%] | residual activity [20] [%] | residual activity [21] [%] | residual activity [23] [%] | residual activity [25] [%] | residual activity [26] [%] | residual activity [29] [%] | residual activity [30] [%] | inhibition [31] [%] | residual activity [32] [%] | residual activity [33] [%] | also measured
1 | C[C@H](NC(=O)c1cnc2n1[C@](C)(Cc1ccc(C#N)cc1)C(=O)N2c1cc(Cl)c(F)c(Cl)c1)C(=O)NC1(c2ccccn2)CC1 [BI 1950] | 9.55 | 97 | 100 | 100 | 94 | 100 | 100 | 91 | 100 | 97 | 100 | 100 | 100 | 99 | 92 | 94 | 100 | 11.8 | 100 | 100 | residual activity [8]: 74%; residual activity [9]: 105%; residual activity [11]: 86%; residual activity [13]: 73%; residual activity [14]: 102%; residual activity [15]: 105%; residual activity [16]: 67%; residual activity [17]: 88%; activity at 10 µM [18]: 69% (not active); residual activity [22]: 86%; residual activity [24]: 102%; residual activity [27]: 85%; residual activity [28]: 84%; residual activity [34]: 96%; residual activity [35]: 85%; residual activity [36]: 100%; residual activity [37]: 100%; residual activity [38]: 72%
2 | C[C@@]1(Cc2ccc(C#N)cc2)C(=O)N(c2cc(Cl)cc(Cl)c2)c2ncc(C(=O)NC3(c4nc(C5CCC5)no4)CC3)n21 [BI 9446] | 27.6 | 100 | 100 | 100 | 84 | 100 | 100 | 100 | 100 | 88 | 100 | 100 | 100 | 100 | 97 | 100 | 86 | 11 | 100 | 86 | inhibition [39]: -8.46%; residual activity [34]: 100%; residual activity [35]: 100%; residual activity [36]: 100%; residual activity [37]: 100%
